# Results reported in patent publication US20240209028A1, “CNP COMPOUNDS” (priority 2022, published 2024).
# Starred links: 1 amine or outer side, 2 acyl side, 3 side chain; linkers in the order of their positions; H or OH if unused. Positions of bridges follow the written chain, without caps; N, C: chain ends. Residues, ends and D or L forms follow the SMILES beside them. *: point of attachment. C18 diacid = O=C(O)CCCCCCCCCCCCCCCCC(=O)*; γGlu = O=C(O)[C@H](CCC(=O)[*:2])N[*:1]; AEEA = NCCOCCOCC(=O)O
# Assay: Accelerated chemical stability (RP-UPLC recovery and LCMS degradation pattern, 37° C.)
# Format: physicochemical
# Parameters: Isomers TZ / Isomers 2 W / Loss of 18 amu TZ / Loss of 18 amu 2 W / Fragments TZ / Fragments 2 W / Fragments 1 W / Fragments 3 W / Fragments 4 W / Fragments 5 W / Fragments 6 W / Others 1 W / Others 3 W / Others 4 W / Others 5 W / Others 6 W / Isomers 1 W / Isomers 3 W / Isomers 4 W / Isomers 5 W / Isomers 6 W / Loss of 18 amu 1 W / Loss of 18 amu 3 W / Loss of 18 amu 4 W / Loss of 18 amu 5 W / Loss of 18 amu 6 W: unit not given here
# Details: LCMS, 8 mM sodium phosphate, 250 mM glycerol, pH 6.5
# Description: In order to determine the chemical stability of CNP compounds in formulation, samples of CNP compounds in buffer were exposed to accelerated chemical degradation by heating. The stability of a given peptide was assessed by measuring recovery of intact peptide by quantification by RP-UPLC. To assess the chemical degradation pattern samples were also analysed by LC-MS.
# Sample preparation: Samples for the 2 week study were prepared according to the principles described in Example 5.
# Samples for the 6 week study were prepared by dissolving lyophilized peptide in buffer (8 mM phosphate, 250 mM glycerol, pH 7.4) to a nominal peptide concentration of 5000 nmol/ml followed by pH adjustment with 0.1 N HCl to pH 6.5.
# Incubation: For the 2 week study a time-zero (TZ) sample was pulled and stored at −18° C. and the remaining volume was incubated at 37° C. Samples were pulled and stored at −18° C. after 2 weeks of incubation. Frozen samples were thawed, diluted to about 200 nmol/mL and the extent of chemical degradation was determined using LCMS as described.
# For the 6 week study a time-zero (TZ) sample was pulled and stored at −18° C. and the remaining volume was incubated at 37° C. Samples were pulled on a weekly basis and stored at −18° C. until the last sampling time point at 6 weeks. Frozen samples were thawed, diluted to about 200 nmol/mL and the extent of chemical degradation was determined using RP-UPLC and LCMS as described.
# Analysis of peptide recovery by RP-UPLC: The RP-UPLC method was performed on a Waters ACQUITY H-CLASS UPLC system fitted with a PDA detector. Separation was carried out on an ACQUITY UPLC BEH C8 Column (130 Å, 1.7 μm, 2.1 mm×150 mm) operating at a column temperature of 50° C. with eluent A (19.59 mM NH4H2PO4 41.71 mM (NH4)2HPO4, pH 6.5 and MeCN 9:1 v:v) and eluent B (80% MeCN in water). UV-detection was carried out at 214 nm. The analysis was performed by injection of 3 μL of sample onto the column which was eluted with a 1-step linear gradient of eluents A and B from 27 to 30% B over 20 minutes followed by a wash at 95% B over 2 minutes followed by a re-equilibration phase for 7 minutes at a constant flow rate of 0.3 mL/min. This yielded an analysis time of 30 minutes per sample. The area of the peak corresponding to intact CNP compound was given on a percentage scale relative to the total peptide peak area.
# Analysis of chemical degradation patterns by LCMS: Samples were analysed on a […] UPLC from Thermo Scientific, using a Waters Acquity C18 reversed-phase column, 300 Å, […] particles 1 mm×150 mm. The compounds were separated by a linear gradient of solvent B from 5% to 55% over 48 minutes, using solvent A: water, 0.1% formic acid with 0.02% TFA and solvent B: acetonitrile, 0.1% formic acid with 0.02% TFA. Mass spectra were acquired by a Q Exactive Plus hybrid Quadrupole-Orbitrap mass spectrometer, BioPharma option (Thermo Scientific) interfaced with H-ESI II ion source. Data acquisitions were performed with a m/z 500 to 2000 scan range and a resolution of 30000.
# The data list was aggregated into a summed table of the compounds. The table headers were defined as follows: […]
# Results: The results from LCMS analysis of a 2 week accelerated degradation study on several CNP compounds of the present invention are summarised in Table 12. The results from RP-UPLC and LCMS analysis of a 6 week accelerated degradation study on CNP compound 9482 (Chem. 137) is summarised in Table 13 and Table 14 respectively.
smiles,measurement,setting,value
CC[C@H](C)[C@@H]1NC(=O)[C@H](CCCNC(=N)N)NC(=O)[C@H](CC(=O)O)NC(=O)[C@H](CC(C)C)NC(=O)[C@@H]2CCCN2C(=O)[C@H](CC(C)C)NC(=O)CNC(=O)[C@H](Cc2ccccc2)NC(=O)[C@@H](NC(=O)CNC(=O)[C@H](CCC(N)=O)NC(=O)[C@H](CO)NC(=O)[C@H](CC(C)C)NC(=O)CNC(=O)[C@H](CCCCN)NC(=O)[C@H](CCCCN)NC(=O)[C@H](CCC(N)=O)NC(=O)[C@H](C)NC(=O)CNC(=O)[C@H](CCCCN)NC(=O)[C@H](Cc2ccc(O)cc2)NC(=O)[C@H](CCCCN)NC(=O)[C@H](CCCNC(=N)N)NC(=O)[C@H](C)NC(=O)COCCOCCNC(=O)COCCOCCNC(=O)COCCOCCNC(=O)COCCOCCNC(=O)CC[C@H](NC(=O)CC[C@H](NC(=O)CC[C@H](NC(=O)CC[C@H](NC(=O)CC[C@H](NC(=O)CCCCCCCCCCCCCCCCC(=O)O)C(=O)O)C(=O)O)C(=O)O)C(=O)O)C(=O)O)CSSC[C@@H](C(=O)O)NC(=O)CNC(=O)[C@H](CC(C)C)NC(=O)CNC(=O)[C@H](CO)NC(=O)[C@H](CC(C)C)NC(=O)[C@H](CO)NC(=O)CNC1=O [Compound 9407] ({C18 diacid-γGlu-γGlu-γGlu-γGlu-γGlu-AEEA-AEEA-AEEA-AEEA}-ARKYKGAQKKGLSQGCFGLPLDRIGSLSGLGC-OH; disulfide 16-32),Fragments 2 W,2 weeks at 37° C.,0.7
same,Isomers 2 W,2 weeks at 37° C.,1.1
same,Loss of 18 amu 2 W,2 weeks at 37° C.,0
same,Others 2 W,2 weeks at 37° C.,0.3%
same,Fragments TZ,time zero,0
same,Isomers TZ,time zero,0
same,Loss of 18 amu TZ,time zero,0
same,Others TZ,time zero,0.1%
